# Read-outs that look alike come from different tables or passages of the source.
# How the values were obtained:
# [1] = target: Cyno CCR2 (Macaca fascicularis); experiment: In vitro chemotaxis assay with L1.2 cells stably transfected with Cyno CCR2; type: cell-based, Cynomolgus monkey
# Text: (§1) The first employs monkey PBMC's while the second uses L1.2 cells stably transfected with Cyno CCR2.
# monkey PBMC's = experiment: In vitro chemotaxis assay with monkey PBMC's; type: cell-based, Cynomolgus monkey; conditions: Primates, highly variable
# Text: as §1
# hERG [2] = target: T1, hERG (Homo sapiens, UniProt Q12809); experiment: hERG flux (Tl+ flux, FLIPR) in HEK293 cells; type: cell-based; design: expressed in transfected cells; host or cells: HEK293
# T1 sequence (Q12809 whole entry): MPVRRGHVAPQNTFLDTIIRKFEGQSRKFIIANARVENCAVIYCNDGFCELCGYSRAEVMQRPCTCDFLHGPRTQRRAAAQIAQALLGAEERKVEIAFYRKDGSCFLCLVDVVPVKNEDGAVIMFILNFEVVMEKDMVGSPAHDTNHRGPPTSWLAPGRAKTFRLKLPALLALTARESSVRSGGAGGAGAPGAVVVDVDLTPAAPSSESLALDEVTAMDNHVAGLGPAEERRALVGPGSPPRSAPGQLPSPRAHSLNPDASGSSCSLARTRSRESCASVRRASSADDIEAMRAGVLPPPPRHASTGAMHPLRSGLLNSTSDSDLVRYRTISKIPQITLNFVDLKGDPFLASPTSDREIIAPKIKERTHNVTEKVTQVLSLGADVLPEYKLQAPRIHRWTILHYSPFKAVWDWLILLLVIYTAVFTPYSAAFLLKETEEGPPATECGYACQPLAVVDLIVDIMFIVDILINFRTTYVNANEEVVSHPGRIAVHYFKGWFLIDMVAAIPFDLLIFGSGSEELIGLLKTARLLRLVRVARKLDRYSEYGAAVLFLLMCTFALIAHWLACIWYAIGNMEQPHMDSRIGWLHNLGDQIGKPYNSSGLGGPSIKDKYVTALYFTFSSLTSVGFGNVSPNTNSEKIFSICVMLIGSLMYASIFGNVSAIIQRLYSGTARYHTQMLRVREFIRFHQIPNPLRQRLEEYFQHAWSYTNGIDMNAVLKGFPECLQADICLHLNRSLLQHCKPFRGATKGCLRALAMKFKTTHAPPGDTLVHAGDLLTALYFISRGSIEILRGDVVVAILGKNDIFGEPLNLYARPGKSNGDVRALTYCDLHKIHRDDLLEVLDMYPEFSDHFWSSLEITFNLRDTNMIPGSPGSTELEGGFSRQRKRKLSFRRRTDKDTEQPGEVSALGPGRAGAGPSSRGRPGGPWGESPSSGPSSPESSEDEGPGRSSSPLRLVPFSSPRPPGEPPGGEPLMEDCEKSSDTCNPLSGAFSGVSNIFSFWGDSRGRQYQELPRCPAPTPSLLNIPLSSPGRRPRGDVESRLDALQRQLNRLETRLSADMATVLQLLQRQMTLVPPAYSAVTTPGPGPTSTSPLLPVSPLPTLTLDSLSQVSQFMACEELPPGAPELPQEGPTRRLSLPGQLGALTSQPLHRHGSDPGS
# Method: HEK293 cells stably-expressing hERG channels were grown (37° C., 5% CO2) in Dulbecco's Modified Eagle's Media supplemented with 10% Sigma fetal bovine serum, non-essential amino acids, 2 mM L-glutamine and 500 μg/ml G418, at incubator.
# A 2 mM stock of BTC-AM dye (Molecular Probes, Eugene, Oreg.) was prepared in 100% DMSO and then added 1:1 to 10% (w/v) pluronic acid in DMSO on the day of assay. The dye was then diluted in hERG external EP buffer (140 mM NaCl, 4.0 mM KCl, 1.8 mM CaCl2, 1.0 mM MgCl2, 10 mM HEPES, pH 7.3 and 10 mM glucose; all buffer components obtained from Sigma Chemical). This BTC dye mixture (30 μl) was added to the cells and produced a final loading concentration of 2.5 μM. Cells are incubated at 21° C. for 45 minutes.
# Test compounds were diluted to 10 mM DMSO in 60 μl. […] Assay-ready plates were generated by stamping 2.5 μl from the DMSO serially diluted plate, which was prepared on the Velocity 11 BioCel. Aqueous plates were created by adding 48 μl of EP buffer and then were diluted 30-45 minutes before the assay was read on the FLIPR. […] Assay-ready aqueous plates were prepared and diluted on a Cybio liquid handler.
# Cells loaded with dye were read on the FLIPR384 (Molecular Devices, Sunnyvale, Calif.), which excites the dye using the 488 nm line of an argon laser. […]
# The dynamic range of the assay was determined from blanks and totals wells. […]
# [3] = system: infiltration of mononuclear cells to the skin tissue injected with human MCP-1; experiment: Intradermal (ID) MCP-1 challenge model in Cynomolgus monkey; type: in vivo; design: PMN score / Eos score / Total cell score: scale not given here; conditions: for inhibition of mononuclear cell infiltration: second study, naive monkeys
# Method: (§2) Intradermal injection of MCP-1 results in the infiltration of mononuclear cells to the injection site. This model was initially developed to assess the inhibitory effect of CCR2 antagonists on the infiltration of mononuclear cells to the skin tissue injected with human MCP-1.
# (§3) Immediately after dosing on Day 3, all animals received at least 2 intradermal injections of 10 μg (50 μL/injection ) of human MCP-1 (R & D Systems) and at least 2 intradermal injections of its DPBS control (50 μl/injection) at separate sites on the dorsal thorax. Dermal biopsies of all sites were obtained at approximately 18 hours following MCP-1 (or DPBS) challenge. Biopsies were processed for semi-quantitative histological evaluation. Representative sections of skin samples were examined by light microscopy, microscopic lesions and cellular infiltration were noted, and their incidences were tabulated.
# (§4) For both studies, in addition to biopsy analysis, blood was collected and evaluated for complete blood counts and cell differentials. Also evaluated were plasma samples for compound concentrations, and serum samples for systemic inflammatory mediator levels.
# [4] = as above; type: in vivo; design: PMN score / Eos score / Total cell score: scale not given here; conditions: both sexes, cynomolgus monkey, plasma, read-out: Free plasma conc
# Method: as §2, §3, §4
# [5] = system: EAE, a model of multiple sclerosis; type: in vivo
# hERG [6] = target: T1, hERG; experiment: hERG patch clamp, HEK-293 cells; conditions: pH 7.4
# [7] = Parallel Artificial Membrane Permeability Assay (PAMPA); conditions: mean ± SD (n in parentheses)
# Text: The Parallel Artificial Membrane Permeability Assay (PAMPA) consists of a specially formulated lecithin-based lipid combination referred to as the gastrointestinal tract (GIT) lipid. The GIT lipid is used to form a membrane in a sandwich plate assembly similar to that used in the Caco-2 assays. […] The rate of passage of compounds through the PAMPA membrane is used to determine a permeability coefficient (Pc), which can be related to the in vivo passive permeability of the compound.
# The permeability coefficient (Pc) of a particular compound is examined in a pH-dependent setting with apical and basolateral pH of 7.4. All experiments are conducted in triplicate determinations.
# The PAMPA assay plate (donor side and acceptor side) was combined and allowed to incubate at room temperature for 4 hours. […] The donor, acceptor, reference, and blank plates were read in the SpectraMax UV plate reader. Data was captured by the pION software, which analyzes the spectra and generates Pc values.
# [8] = Single-dose pharmacokinetics in rats; conditions: rat
# Method: Male Sprague-Dawley rats (250-300 g) were used for the pharmacokinetic studies. Rats were fasted overnight prior to PO dosing and fed 4 h post dose. Blood samples (˜0.3 mL) were collected from the jugular vein into K2EDTA-containing tubes and then centrifuged at 4° C. (1500-2000×g) to obtain plasma. […] Serial blood samples were obtained at 0.17 (for IV only), 0.25, 0.5, 0.75, 1, 2, 4, 6, 8, and 24 h post dose. Plasma samples, obtained by centrifugation at 4° C. (1500-2000×g), were stored at −20° C. until analysis by LC/MS/MS.
# (§5) The pharmacokinetic parameters were obtained by non-compartmental analysis of plasma concentration vs. time data ([…] ™ software, Version 4.2, InnaPhase Corporation, Philadelphia, Pa.). The peak concentration (Cmax) and time for Cmax were recorded directly from experimental observations. The area under the curve from time zero to the last sampling time (AUC(0-T)) was calculated using a combination of linear and log trapezoidal summations. The total plasma clearance (CLTp), steady-state volume of distribution (Vss), apparent elimination half-life (T½) and mean residence time (MRT) were estimated after IV administration. […] The absolute oral bioavailability (F) was estimated as the ratio of dose-normalized AUC values following oral and IV doses.
# [9] = target: human cardiac sodium channel SCN5A (Homo sapiens, UniProt Q14524); experiment: Sodium channel patch clamp, HEK-293 cells; type: cell-based; conditions: read-out: Na+ channel patch clamp (% Inhib.)
# human cardiac sodium channel SCN5A, sequence (Q14524 whole entry): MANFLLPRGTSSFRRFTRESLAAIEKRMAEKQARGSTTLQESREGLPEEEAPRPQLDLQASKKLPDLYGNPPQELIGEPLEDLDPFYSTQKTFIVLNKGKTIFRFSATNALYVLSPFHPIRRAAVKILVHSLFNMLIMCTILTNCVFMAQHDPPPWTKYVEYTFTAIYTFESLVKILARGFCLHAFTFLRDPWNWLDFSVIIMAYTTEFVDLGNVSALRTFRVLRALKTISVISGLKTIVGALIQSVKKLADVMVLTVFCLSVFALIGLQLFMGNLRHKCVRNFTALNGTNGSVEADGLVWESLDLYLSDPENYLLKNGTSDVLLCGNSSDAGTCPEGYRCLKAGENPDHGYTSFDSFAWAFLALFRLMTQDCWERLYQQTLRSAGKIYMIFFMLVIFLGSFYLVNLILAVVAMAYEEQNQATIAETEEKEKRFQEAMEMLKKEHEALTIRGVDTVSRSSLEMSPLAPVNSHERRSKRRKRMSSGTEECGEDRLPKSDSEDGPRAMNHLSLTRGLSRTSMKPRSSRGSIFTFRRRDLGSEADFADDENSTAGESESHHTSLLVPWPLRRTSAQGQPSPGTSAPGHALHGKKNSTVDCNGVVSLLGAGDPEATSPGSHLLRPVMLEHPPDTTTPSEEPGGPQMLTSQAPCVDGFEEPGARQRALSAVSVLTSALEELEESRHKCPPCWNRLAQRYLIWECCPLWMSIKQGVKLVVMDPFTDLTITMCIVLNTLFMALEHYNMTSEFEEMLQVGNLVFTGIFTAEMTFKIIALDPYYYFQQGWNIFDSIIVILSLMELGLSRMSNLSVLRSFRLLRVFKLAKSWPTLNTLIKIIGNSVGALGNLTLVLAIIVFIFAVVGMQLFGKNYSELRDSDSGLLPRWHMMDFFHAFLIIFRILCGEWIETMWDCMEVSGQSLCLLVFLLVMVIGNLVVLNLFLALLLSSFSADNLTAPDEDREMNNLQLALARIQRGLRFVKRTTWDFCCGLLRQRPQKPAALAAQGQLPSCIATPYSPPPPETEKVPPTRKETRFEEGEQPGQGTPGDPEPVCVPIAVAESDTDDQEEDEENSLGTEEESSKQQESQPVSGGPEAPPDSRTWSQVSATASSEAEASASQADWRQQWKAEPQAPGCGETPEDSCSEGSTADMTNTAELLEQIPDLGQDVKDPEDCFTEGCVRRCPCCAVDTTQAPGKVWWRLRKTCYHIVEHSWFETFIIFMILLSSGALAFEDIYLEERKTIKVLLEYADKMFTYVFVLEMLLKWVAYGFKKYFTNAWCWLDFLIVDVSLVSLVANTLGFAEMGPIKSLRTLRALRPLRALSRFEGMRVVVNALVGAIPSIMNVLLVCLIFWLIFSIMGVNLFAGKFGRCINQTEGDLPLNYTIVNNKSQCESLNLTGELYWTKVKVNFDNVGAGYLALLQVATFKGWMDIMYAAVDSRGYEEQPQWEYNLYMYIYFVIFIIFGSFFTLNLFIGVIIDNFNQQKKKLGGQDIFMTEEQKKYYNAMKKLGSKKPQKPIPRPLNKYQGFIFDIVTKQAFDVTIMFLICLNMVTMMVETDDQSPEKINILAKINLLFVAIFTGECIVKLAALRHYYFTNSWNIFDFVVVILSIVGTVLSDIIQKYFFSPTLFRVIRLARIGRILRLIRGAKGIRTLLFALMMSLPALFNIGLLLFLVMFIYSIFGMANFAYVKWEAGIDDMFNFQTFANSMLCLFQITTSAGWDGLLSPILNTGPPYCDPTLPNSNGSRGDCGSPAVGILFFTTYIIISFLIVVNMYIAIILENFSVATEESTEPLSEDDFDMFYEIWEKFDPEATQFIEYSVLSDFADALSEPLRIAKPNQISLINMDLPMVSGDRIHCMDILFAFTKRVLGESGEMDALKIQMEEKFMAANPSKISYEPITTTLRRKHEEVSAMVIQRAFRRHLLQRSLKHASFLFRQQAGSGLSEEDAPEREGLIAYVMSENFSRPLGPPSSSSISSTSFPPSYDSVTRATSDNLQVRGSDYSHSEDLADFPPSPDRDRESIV
# Method: The compound was tested at a protein-free aqueous buffer. For determining steady state inhibition, sodium currents were elicited every 5 seconds using the following voltage protocol: cells were held at a potential of −90 mV and stepped to −20 mV for 60 ms. Effects were calculated by measuring inhibition of peak current during the test pulse to −20 mV. Rate-dependence of inhibition was assessed by stimulation at frequencies of 1 Hz and 4 Hz.
# CCR2 [10] = target: T2, CCR2 (Homo sapiens, UniProt P41597); experiment: In vivo receptor occupancy in blood of hCCR2 KI mice, 48-hour TG peritonitis model (Gaddum equation); conditions: for Concentration of Mouse MCP-1 in plasma / Concentration of free Example 1 in plasma: 48-hour TG peritonitis; for % free CCR2 / % mouse MCP-1 bound CCR2 / % of Example 1-bound CCR2: Gaddum equation
# T2 sequence (P41597 whole entry): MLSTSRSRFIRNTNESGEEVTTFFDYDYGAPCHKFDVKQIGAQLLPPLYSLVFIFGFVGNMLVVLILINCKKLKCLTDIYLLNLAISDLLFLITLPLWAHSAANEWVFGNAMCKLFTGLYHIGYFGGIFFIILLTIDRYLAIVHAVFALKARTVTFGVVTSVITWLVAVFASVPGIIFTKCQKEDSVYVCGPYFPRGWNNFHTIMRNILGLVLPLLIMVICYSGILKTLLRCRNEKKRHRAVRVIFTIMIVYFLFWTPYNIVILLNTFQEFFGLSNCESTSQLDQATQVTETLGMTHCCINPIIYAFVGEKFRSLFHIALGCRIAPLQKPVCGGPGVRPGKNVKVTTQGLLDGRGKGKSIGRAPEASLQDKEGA
# [11] = system: monocyte/macrophage infiltration into peritoneal cavity; experiment: 48-hour thioglycollate (TG)-induced peritonitis model in hCCR2 KI mouse; type: in vivo, hCCR2 KI mice; conditions: for % inhibition of monocyte/macrophage infiltration: FACS-based analysis of total monocyte/macrophages, 48 h; for EC50: Mus musculus, two separate studies, estimated, read-out: average EC50 for inhibition of monocyte/macrophage infiltration; for inhibition of monocyte/macrophage infiltration: flow cytometry (F4/80, Ly6C)
# Method: The hCCR2 KI mice (C57BL/6-SVJ129) were injected intraperitoneally with 1 ml of thioglycollate (TG) (Hardy Diagnostics). For each study, eight male mice per group were used. […] The vehicle used was 0.01 N HCl in water. Forty-eight hours post TG injection, peritoneal lavages were performed by injecting 5 ml PBS/10 mM EDTA/10% BSA into the peritoneal cavity.
# Cytospins were performed to determine differential leukocyte counts. The cells were stained for 3 minutes with Wright-Giemsa Stain (Sigma-Aldrich) and then rinsed with deionized water for 5 minutes. Differential counts were calculated based on a total of 200 cells counted per sample.
# [12] = Single-dose pharmacokinetics in monkeys; conditions: male, Cynomolgus, cynomolgus monkey
# Method: The pharmacokinetics of various test compounds were evaluated in male Cynomolgus monkeys in a crossover-design. Monkeys were fasted overnight prior to PO dosing and fed 4 h post dose. […] Serial blood samples (˜0.3 mL) were collected from a femoral artery at 0.17 (IV only), 0.25, 0.5, 0.75, 1, 2, 4, 6, 8, and 24 h post dose, and centrifuged at 4° C. (1500-2000×g) to obtain plasma. Samples were stored at −20° C. until analysis by LC/MS/MS.
# as §5
# [13] = Moisture-sorption isotherm; type: physicochemical; conditions: ca. 25% to ca. 75% RH at 25° C.
# Method: A sample of the oily, gel-like (amorphous) free base of N-((1R,2S,5R)-5-(isopropyl(methyl)amino)-2-((S)-2-oxo-3-(6-(trifluoromethyl)quinazolin-4-ylamino)pyrrolidin-1-yl)cyclohexyl)acetamide (approx 0.5 g), extracted from a sample of the BSA salt, was suspended in heptane (approx 5 mL). The flask was scratched with a metal spatula, and the suspension was stirred vigorously by a magnetic stir bar at 25° C. A white slurry of crystalline particles was obtained after 24 hours of stirring. The slurry was filtered and the wet cake dried in vacuo (40° C.) to provide the pure N-2 form (confirmed by PXRD) of the free base. Form N-2 was characterized by an XRD pattern which matches the simulated pattern generated from the single crystal structure data. Form N-2 is the neat (no solvate molecules or no molecules of water or solvent) form of N-((1R,2S,5R)-5-(isopropyl(methyl)amino)-2-((S)-2-oxo-3-(6-(trifluoromethyl)quinazolin-4-ylamino)pyrrolidin-1-yl)cyclohexyl)acetamide, free base. Form N-2, was characterized by a DSC thermogram having a melt endotherm onset typically at ca. 158° C. to ca. 162° C. Form N-2 was characterized by a TGA thermal curve having a negligible weight loss at up to ca. 145° C. which agreed with the single crystal structure data. The weight loss corresponded to adventitious solvent.
# CCR2 [14] = target: T2, CCR2; experiment: Cold competition ligand binding to hCCR2 using 125I-human MCP-1; conditions: 125I-human MCP-1, n=8
# Cyno CCR2 (Macaca fascicularis), sequence (Z9BGH1DMK8 1-374): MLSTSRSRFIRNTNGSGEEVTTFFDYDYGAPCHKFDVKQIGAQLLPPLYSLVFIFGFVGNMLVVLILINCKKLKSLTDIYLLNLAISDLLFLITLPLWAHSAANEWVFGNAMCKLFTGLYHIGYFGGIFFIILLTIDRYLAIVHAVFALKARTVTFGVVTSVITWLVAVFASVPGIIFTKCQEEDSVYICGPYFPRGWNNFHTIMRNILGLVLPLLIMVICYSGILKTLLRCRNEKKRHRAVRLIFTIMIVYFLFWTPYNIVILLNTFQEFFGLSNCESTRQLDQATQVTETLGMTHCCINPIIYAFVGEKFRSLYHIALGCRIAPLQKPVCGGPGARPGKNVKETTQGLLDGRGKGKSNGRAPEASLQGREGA
compound,measurement,setting,value
"CC(=O)N[C@@H]1C[C@H](N(C)C(C)C)CC[C@@H]1N1CC[C@H](Nc2ncnc3ccc(C(F)(F)F)cc23)C1=O [Example 1, N-((1R,2S,5R)-5-(isopropyl(methyl)amino)-2-((S)-2-oxo-3-(6-(trifluoromethyl)quinazolin-4-ylamino)pyrrolidin-1-yl)cyclohexyl)acetamide]",IC50,[1],11.4 ± 8 nM
same,IC50,monkey PBMC's,5.5 ± 10 nM
same,IC50,hERG [2],> 80000 nM
same,Eos score,"[3]; Study 1, 6.5 mg/kg",1.3 ± 0.8
same,MNC score (inh %),"[3]; Study 1, 6.5 mg/kg",(19%)
same,PMN score,"[3]; Study 1, 6.5 mg/kg",0.8 ± 0.3
same,Total cell score,"[3]; Study 1, 6.5 mg/kg",4.3 ± 1.6
same,MNC score,"[3]; Study 1, 6.5 mg/kg, scale of 0 to 4",2.2 ± 0.6
same,Eos score,"[3]; Study 1, 13 mg/kg",1.2 ± 0.6
same,MNC score (inh %),"[3]; Study 1, 13 mg/kg",(19%)
same,PMN score,"[3]; Study 1, 13 mg/kg",0.7 ± 0.3
same,Total cell score,"[3]; Study 1, 13 mg/kg",4.0 ± 0.5
same,MNC score,"[3]; Study 1, 13 mg/kg, scale of 0 to 4",2.2 ± 0.3
same,Eos score,"[3]; Study 1, 26 mg/kg",0.5 ± 0^
same,MNC score (inh %),"[3]; Study 1, 26 mg/kg",(56%)
same,PMN score,"[3]; Study 1, 26 mg/kg",0.2 ± 0.3
same,Total cell score,"[3]; Study 1, 26 mg/kg",1.8 ± 0.8
same,MNC score,"[3]; Study 1, 26 mg/kg, scale of 0 to 4",1.2 ± 0.6
same,Eos score,"[3]; Study 2, 10 mg/kg",0.3 ± 0.1
same,MNC score,"[3]; Study 2, 10 mg/kg",0.2 ± 0.2
same,MNC score (inh %),"[3]; Study 2, 10 mg/kg",(87%)
same,PMN score,"[3]; Study 2, 10 mg/kg",0
same,Total cell score,"[3]; Study 2, 10 mg/kg",0.5 ± 0.2
same,Eos score,"[3]; Study 2, 30 mg/kg",0.6 ± 0.7
same,MNC score,"[3]; Study 2, 30 mg/kg",0.1 ± 0.3
same,MNC score (inh %),"[3]; Study 2, 30 mg/kg",(91%)
same,PMN score,"[3]; Study 2, 30 mg/kg",0.1 ± 0.3
same,Total cell score,"[3]; Study 2, 30 mg/kg",0.8 ± 0.8
same,infiltration of other cells types such as eosinophils and neutrophils,[3]; first study,inhibited the infiltration
same,inhibition of MCP-1 induced infiltration of mononuclear cells to the skin,"[3]; first study, 26 mg/kg oral once daily for three days, biopsy 18 hours after MCP-1",56%
same,inhibition of MCP-1 induced infiltration of mononuclear cells to the skin,"[3]; first study, 13 and 6.5 mg/kg",lower levels of inhibition
same,inhibition of mononuclear cell infiltration,[3]; 10 mg/kg,87%
same,inhibition of mononuclear cell infiltration,[3]; 30 mg/kg,91%
same,concentration at 18 h,"[4]; 6.5 mg/kg once daily for 3 days, Study 1, 6.5 mg/kg oral once daily 3 days, 18 hours",53 nM
same,concentration at 18 h,"[4]; 13 mg/kg once daily for 3 days, Study 1, 13 mg/kg oral once daily 3 days, 18 hours",101 nM
same,concentration at 18 h,"[4]; 26 mg/kg once daily for 3 days, Study 1, 26 mg/kg oral once daily 3 days, 18 hours",238 nM
same,concentration at 18 h,"[4]; Study 2 (naive monkeys), 10 mg/kg oral once daily 3 days",34 nM
same,concentration at 18 h,"[4]; Study 2 (naive monkeys), 30 mg/kg oral once daily 3 days",83 nM
same,clinical score,"[5]; 55 mg/kg BID oral from day 1, two of the three studies, p<0.05",significantly reduced the clinical score
same,"total inflammatory cellular infiltrate, histological evaluation of the spinal cord","[5]; Day 22, versus vehicle",did not demonstrate a significant difference
same,inhibition at 10000 nM,hERG [6],33%
same,inhibition at 30000 nM,hERG [6],61%
same,PAMPA permeability,[7],443 ± 114 (8) nm/sec
same,AUC,"[8]; male, Sprague-Dawley, plasma, po, 10 mg/kg",3.79 µM·h
same,Cl,"[8]; IV, dose IV/PO mg/kg: 2k 2.5/25, 8a 6/72, 9c 4/43, Example 1 2/10",43 mL/min/kg
same,F %,"[8]; dose IV/PO mg/kg: 2k 2.5/25, 8a 6/72, 9c 4/43, Example 1 2/10",51%
same,inhibition at 10000 nM,"[9]; HEK-293 cells expressing human cardiac sodium channel SCN5A, 10,000 nM",17%
same,inhibition at 30000 nM,"[9]; HEK-293 cells expressing human cardiac sodium channel SCN5A, 30,000 nM",19%
same,Concentration of Mouse MCP-1 in plasma,CCR2 [10]; 1 mg/kg oral BID,0.027 nM
same,Concentration of free Example 1 in plasma,CCR2 [10]; 1 mg/kg oral BID,1 nM
same,% free CCR2,CCR2 [10]; 1 mg/kg,53.7%
same,% mouse MCP-1 bound CCR2,CCR2 [10]; 1 mg/kg,1.6%
same,% of Example 1-bound CCR2,CCR2 [10]; 1 mg/kg,44.7%
same,Concentration of Mouse MCP-1 in plasma,CCR2 [10]; 5 mg/kg oral BID,0.043 nM
same,Concentration of free Example 1 in plasma,CCR2 [10]; 5 mg/kg oral BID,4 nM
same,% free CCR2,CCR2 [10]; 5 mg/kg,22.8%
same,% mouse MCP-1 bound CCR2,CCR2 [10]; 5 mg/kg,1.1%
same,% of Example 1-bound CCR2,CCR2 [10]; 5 mg/kg,76.1%
same,Concentration of Mouse MCP-1 in plasma,CCR2 [10]; 25 mg/kg oral BID,0.041 nM
same,Concentration of free Example 1 in plasma,CCR2 [10]; 25 mg/kg oral BID,24 nM
same,% free CCR2,CCR2 [10]; 25 mg/kg,4.8%
same,% mouse MCP-1 bound CCR2,CCR2 [10]; 25 mg/kg,0.2%
same,% of Example 1-bound CCR2,CCR2 [10]; 25 mg/kg,95.0%
same,% inhibition of monocyte/macrophage infiltration,[11]; 1 mg/kg,38%
same,% inhibition of monocyte/macrophage infiltration,[11]; 5 mg/kg,71%
same,% inhibition of monocyte/macrophage infiltration,[11]; 25 mg/kg,86%
same,number of total peritoneal leukocytes obtained by cell counter,"[11]; 1, 5, or 25 mg/kg BID oral, 48 hours post TG",dose-dependent reduction
same,EC50,[11]; differential leukocyte counts,3 ± 0.9 nM
same,EC50,[11]; flow cytometry,2.2 ± 0.5 nM
same,inhibition of monocyte/macrophage influx,"[11]; differential leukocyte counts, 1 mg/kg BID",20%
same,inhibition of monocyte/macrophage influx,"[11]; differential leukocyte counts, 5 mg/kg BID",62%
same,inhibition of monocyte/macrophage influx,"[11]; differential leukocyte counts, 25 mg/kg BID",69%
same,inhibition of monocyte/macrophage infiltration,[11]; 1 mg/kg BID,38%
same,inhibition of monocyte/macrophage infiltration,[11]; 5 mg/kg BID,71%
same,inhibition of monocyte/macrophage infiltration,[11]; 25 mg/kg BID,86%
same,bioavailability,"[12]; in vivo, po, 1.3 mg/kg",47%
same,clearance,"[12]; plasma, iv, 1 mg/kg",23 mL/min/kg
same,AUC,"[12]; plasma, po, 1.3 mg/kg",0.836 µM·h
"CC(=O)N[C@@H]1C[C@H](N(C)C(C)C)CC[C@@H]1N1CC[C@H](Nc2ncnc3ccc(C(F)(F)F)cc23)C1=O [Form N-2, N-((1R,2S,5R)-5-(isopropyl(methyl)amino)-2-((S)-2-oxo-3-(6-(trifluoromethyl)quinazolin-4-ylamino)pyrrolidin-1-yl)cyclohexyl)acetamide]",moisture-sorption isotherm weight gain,[13],0.15%
mouse MCP-1: mouse CCR2 ligand MCP-1 (chemokine),Kd,CCR2 [14],0.91 nM

# Source: patent US7671062B2, “Modulators of chemokine receptor activity, crystalline forms and process” (Bristol-Myers Squibb Company, priority 2006, dated 2010)
